Consider 18 compounds from US12012373B2, “Cannabinoid derivatives” (CANOPY GROWTH CORPORATION, priority 2019, dated 2024).

One assay addresses T1, human CB2 receptor (Homo sapiens, UniProt P34972).
T1 construct: membranes prepared in house
In words: CB2 radioligand competitive binding assay ([3H]CP 55,940 displacement). The settings on record: for pIC50: [3H]CP 55,940 displacement, CHO-K1 membranes expressing human CB2 receptor; for Selectivity CB2: fold difference in binding between CB1 and CB2, shown in the column of the receptor with higher affinity, 1.00 in both = about same affinity. The protocol:
Compounds of the present disclosure were tested for CB1 receptor binding affinity and for CB2 receptor binding affinity. As used herein, “binding affinity” is represented by the IC50 value, which was experimentally determined as described herein. The lower the IC50 value the higher the binding affinity. A compound of the present disclosure may be said to have “binding selectivity” If it has a higher binding affinity for one receptor compared to the other.
The membranes were prepared from CHO-K1 (Chinese hamster ovary) cells stably transfected with the human CB2 receptor (Cat. #ES-111-C; Perkin Elmer, Boston, MA). The cells were grown adherently and maintained in Ham's F12 medium containing 10% fetal bovine serum (FBS), penicillin, streptomycin and geneticin (G418) at 37° C. in a humid atmosphere of 5% CO2 following the manufacturer's Instructions.
For membrane preparation the cells were washed with PBS and scraped off the plates in cold homogenization buffer (25 mM HEPES (pH 7.4), 2 mM EDTA) containing protease inhibitor cocktail (Sigma Cat. #P8340). The cell suspension was homogenized with a Pro-PK-01200D Polytron Homogenizer (Pro Scientific) and then centrifuged for 30 min at 120,000×g. The supernatant was discarded and the pellet was re-suspended in the homogenization buffer and stored at −80° C. until the time of use.
In this experiment, 3H radiolabeled CP 55,940, i.e. [3H]CP 55,940 (Perkin Elmer, Boston, MA), was used as a radioligand for the CB2 receptor to determine the binding affinity of compounds for the CB2 receptor (Scheme 8; above).
The competition binding experiments (single dose and dose-response) were performed by incubating 0.6 nM of [3H]CP55,940 (specific activity 101 Ci/mmol, Perkin Elmer) and different concentrations of compounds disclosed herein with membranes prepared as above from CHO-K1 cells expressing human CB2 receptor (1 μg of protein/well), 50 mM Tris-HCl (pH 7.4), 5 mM MgCl2, 1 mM CaCl2, and 2 mg/mL BSA.
For the single dose experiments, the compound stocks (usually 10 mM in DMSO) were diluted to working stocks in the binding buffer to give the final compound concentrations of 10 μM and 1 μM. For the dose-response experiments the test compounds were sequentially diluted to provide the desired concentration range for the IC50 determination. In each case the compounds were pre-incubated with the membrane for 20 min, before adding the radioligand.
After incubation with the radioligand for 60 min at 37° C., the incubation was terminated by rapid filtration of assay mixture through MultiScreen®HTS^+ 96-well filter plates (Millipore, Cat. #MSFCNXB), pre-soaked for 60 min with 50 mM Tris-HCl (pH 7.4) containing 0.33% polyethylenimine (PEI). The nonspecific binding (NSB) was determined in the presence of 10 μM unlabeled CP55,940. After drying the filter plate at 50° C. for at least 60 min, the filter-bound radioactivity was determined by scintillation spectrometry using the 1450 MicroBeta Plate Counter (Perkin Elmer, Boston, MA). From the dose-response experiments, the IC50 values were determined (see Table 1, CB2 IC50).

For assay [1], the target named is T2, human CB1 receptor (Homo sapiens, UniProt P21554). In words: biochemical. The class given is binding. The arrangement: membranes prepared in house. The note with it: for Selectivity CB1: fold difference in binding between CB1 and CB2, shown in the column of the receptor with higher affinity, 1.00 in both = about same affinity.
The target in assay [2] is T2, human CB1 receptor. The experiment in a line: PathHunter β-Arrestin functional assay, CB1 receptor, antagonist mode. The class given is cell-based. The arrangement: membranes prepared in house. The note with it: for inhibition at 4 µM: read-out: relative inhibition in comparison to rimonabant.

pIC50: −log10 of the molar value. A value given as a limit tells only on which side of the number the result lay.

T2 sequence (P21554 whole entry): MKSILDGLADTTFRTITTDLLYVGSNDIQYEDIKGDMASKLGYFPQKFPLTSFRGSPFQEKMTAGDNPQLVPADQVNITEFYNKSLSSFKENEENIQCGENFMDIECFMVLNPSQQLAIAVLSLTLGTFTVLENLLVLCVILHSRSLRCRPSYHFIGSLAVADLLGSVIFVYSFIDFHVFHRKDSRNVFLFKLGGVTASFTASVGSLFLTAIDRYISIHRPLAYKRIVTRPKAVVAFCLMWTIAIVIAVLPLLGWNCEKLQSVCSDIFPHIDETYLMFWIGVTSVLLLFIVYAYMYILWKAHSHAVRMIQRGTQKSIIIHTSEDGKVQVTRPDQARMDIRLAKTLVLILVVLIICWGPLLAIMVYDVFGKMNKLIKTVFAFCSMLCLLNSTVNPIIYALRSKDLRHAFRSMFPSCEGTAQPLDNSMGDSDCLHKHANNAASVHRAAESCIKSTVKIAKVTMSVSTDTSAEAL
T1 sequence (P34972 whole entry): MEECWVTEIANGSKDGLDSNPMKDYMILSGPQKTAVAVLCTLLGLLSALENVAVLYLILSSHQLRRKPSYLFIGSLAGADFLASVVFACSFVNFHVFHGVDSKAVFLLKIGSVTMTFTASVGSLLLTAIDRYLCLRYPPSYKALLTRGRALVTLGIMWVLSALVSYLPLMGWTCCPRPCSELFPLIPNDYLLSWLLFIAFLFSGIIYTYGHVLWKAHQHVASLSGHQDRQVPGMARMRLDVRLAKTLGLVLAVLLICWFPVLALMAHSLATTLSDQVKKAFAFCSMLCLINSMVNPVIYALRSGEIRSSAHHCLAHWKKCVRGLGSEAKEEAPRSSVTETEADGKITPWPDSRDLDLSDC

Usually pIC50 stands for the IC50 on a negative log10 scale, so that one unit is a factor of ten. A lower pIC50 goes with a large IC50. Take `C=C(C)[C@@H]1CCC(C)=C[C@H]1c1c(O)cc(CCC)c(S(=O)(=O)NC(C)C)c1O` [Compound 68d, 2,6-dihydroxy-N-isopropyl-5′-methyl-2′-(prop-1-en-2-yl)-4-propyl-1′,2′,3′,4′-tetrahydro-[1,1′-biphenyl]-3-sulfonamide]: the pIC50 on human CB2 receptor and on human CB1 receptor [1] was 5.30 to 6.00 throughout. Besides, at human CB2 receptor, the “Selectivity CB2” value came to 1.74 fold.
Usually inhibition stands for the percentage by which the read-out fell short of the control. On to `CCCCCc1cc(O)c(C2C=C(C)CCC2)c(O)c1C(=O)NS(=O)(=O)c1cccnc1` (stereo not shown) [Compound 71c, 2,6-dihydroxy-5′-methyl-4-pentyl-N-(pyridin-3-ylsulfonyl)-1′,2′,3′,4′-tetrahydro-[1,1′-biphenyl]-3-carboxamide], for which, on human CB1 receptor [2], the pIC50 was 5.52 to 6.11 and the inhibition at 4 µM lay in the range of 11 to 79%. The compound also gave a pIC50 at human CB2 receptor of 6.00 to 7.00. Besides, at human CB1 receptor [1], the pIC50 is 6.00 to 7.00 and the “Selectivity CB1” value amounted to 1.14 fold.
Regarding `C=C(C)[C@@H]1CCC(C)=C[C@H]1c1c(O)cc(CCCCC)c(S(=O)(=O)Nc2ccccc2)c1O` [Compound 24d, 2,6-dihydroxy-5′-methyl-4-pentyl-N-phenyl-2′-(prop-1-en-2-yl)-1′,2′,3′,4′-tetrahydro-[1,1′-biphenyl]-3-sulfonamide], on human CB2 receptor, the pIC50 was 5.30 to 6.00 and the “Selectivity CB2” value is listed as 1.67 fold. The compound also had a pIC50 against human CB1 receptor [1] of 5.30 to 6.00.
On to `C=C(C)[C@@H]1CCC(C)=C[C@H]1c1c(O)cc(CCCCC)c(S(=O)(=O)N(CC)CC)c1O` [Compound 62d, N,N-Diethyl-2,6-Dihydroxy-5′-Methyl-4-Pentyl-2′-(Prop-1-En-2-Yl)-1′,2′,3′,4′-Tetrahydro-[1,1′-Biphenyl]-3-Sulfonamide], for which, on human CB1 receptor [2], the pIC50 was 5.52 to 6.11 and the inhibition at 4 µM is 11 to 79%. On human CB2 receptor, the pIC50 was 6.00 to 7.00 and the “Selectivity CB2” value turned out to be 6.29 fold. On human CB1 receptor [1], the pIC50 was 6.00 to 7.00.
`CCCCCc1cc(O)c(C2C=C(C)CCC2)c(O)c1S(=O)(=O)NC1CC1` (stereo not shown) [Compound 22c, N-cyclopropyl-2,6-dihydroxy-5′-methyl-4-pentyl-1′,2′,3′,4′-tetrahydro-[1,1′-biphenyl]-3-sulfonamide]: on human CB1 receptor [2], the pIC50 was 5.52 to 6.11 and the inhibition at 4 µM fell in the range of 11 to 79%. Moreover, on human CB2 receptor, the pIC50 was 6.00 to 7.00 and the “Selectivity CB2” value is given as 11.59 fold. Moreover, at human CB1 receptor [1], the pIC50 was 5.30 to 6.00.
`C=C(C)[C@@H]1CCC(C)=C[C@H]1c1c(O)cc(CCCCC)c(S(=O)(=O)N2CCOCC2)c1O` [Compound 28d, 5′-Methyl-3-(Morpholinosulfonyl)-4-Pentyl-2′-(Prop-1-En-2-Yl)-1′,2′,3′,4′-Tetrahydro-[1,1′-Biphenyl]-2,6-Diol]: the figures for the pIC50 on human CB2 receptor and against human CB1 receptor [1] were over 7.00 and 6.00 to 7.00, respectively. For the same compound, the “Selectivity CB2” value at human CB2 receptor was 8.20 fold.
As to `CCCCCc1cc(O)c(C2C=C(C)CCC2)c(O)c1S(=O)(=O)NCc1ccccc1` (stereo not shown) [Compound 25c, N-benzyl-2,6-dihydroxy-5′-methyl-4-pentyl-1′,2′,3′,4′-tetrahydro-[1,1′-biphenyl]-3-sulfonamide], on human CB2 receptor, the pIC50 was 6.00 to 7.00 and the “Selectivity CB2” value stood at 1.50 fold. The same compound showed a pIC50 on human CB1 receptor [1] of 6.00 to 7.00.
With `C=C(C)[C@@H]1CCC(C)=C[C@H]1c1c(O)cc(CCCCC)c(S(=O)(=O)NC2CC2)c1O` [Compound 22d, N-Cyclopropyl-2,6-Dihydroxy-5′-Methyl-4-Pentyl-2′-(Prop-1-En-2-Yl)-1′,2′,3′,4′-Tetrahydro-[1,1′-Biphenyl]-3-Sulfonamide], at human CB1 receptor [2], the pIC50 is 5.52 to 6.11 and the inhibition at 4 µM lay within 11 to 79%. Moreover, at human CB2 receptor, the pIC50 is 5.30 to 6.00 and the “Selectivity CB2” value is recorded as 1.52 fold. At human CB1 receptor [1], this compound had a pIC50 of 5.30 to 6.00.
Take `CCCCCc1cc(O)c(C2C=C(C)CCC2)c(O)c1S(=O)(=O)Nc1ccccc1` (stereo not shown) [Compound 24c, 2,6-dihydroxy-5′-methyl-4-pentyl-N-phenyl-1′,2′,3′,4′-tetrahydro-[1,1′-biphenyl]-3-sulfonamide]: at human CB2 receptor, the pIC50 was 6.00 to 7.00 and the “Selectivity CB2” value turned out to be 3.60 fold. In addition, the pIC50 at human CB1 receptor [1] was 5.30 to 6.00.
As for `CCCCCc1cc(O)c(C2C=C(C)CCC2)c(O)c1S(=O)(=O)N1CCOCC1` (stereo not shown) [Compound 28c, 5′-methyl-3-(morpholinosulfonyl)-4-pentyl-1′,2′,3′,4′-tetrahydro-[1,1′-biphenyl]-2,6-diol], the pIC50 was 5.52 to 6.11 at human CB1 receptor [2] and 6.00 to 7.00 on human CB2 receptor. Moreover, the inhibition at 4 µM on human CB1 receptor [2] was in the range of 11 to 79%.
Consider `C=C(C)[C@@H]1CCC(C)=C[C@H]1c1c(O)cc(CCCCC)c(S(=O)(=O)NCc2ccccc2)c1O` [Compound 25d, N-benzyl-2,6-dihydroxy-5′-methyl-4-pentyl-2′-(prop-1-en-2-yl)-1′,2′,3′,4′-tetrahydro-[1,1′-biphenyl]-3-sulfonamide], for which the pIC50 at human CB2 receptor and against human CB1 receptor [1] was 5.30 to 6.00 each time. Further, the “Selectivity CB2” value at human CB2 receptor is given as 2.00 fold.
For `CCCCCc1cc(O)c(C2C=C(C)CCC2)c(O)c1S(N)(=O)=O` (stereo not shown) [Compound 19c, 2,6-dihydroxy-5′-methyl-4-pentyl-1′,2′,3′,4′-tetrahydro-[1,1′-biphenyl]-3-sulfonamide], at human CB2 receptor, the pIC50 is 5.30 to 6.00 and the “Selectivity CB2” value came out at 1.00 fold. Moreover, at human CB1 receptor [1], the pIC50 is 5.30 to 6.00 and the “Selectivity CB1” value is 1.00 fold.
Consider `C=C(C)[C@@H]1CCC(C)=C[C@H]1c1c(O)cc(CCCCC)c(S(=O)(=O)NC(C)C)c1O` (stereo in doubt) [Compound 23d, 2,6-dihydroxy-N-isopropyl-5′-methyl-4-pentyl-2′-(prop-1-en-2-yl)-1′,2′,3′,4′-tetrahydro-[1,1′-biphenyl]-3-sulfonamide], for which, at human CB2 receptor, the pIC50 is 6.00 to 7.00 and the “Selectivity CB2” value was 2.56 fold. The pIC50 at human CB1 receptor [1] was 5.30 to 6.00.
For `C=C(C)[C@@H]1CCC(C)=C[C@H]1c1c(O)cc(CCCCC)c(S(=O)(=O)N(C)C)c1O` (stereo in doubt) [Compound 21d, 2,6-dihydroxy-N,N,5′-trimethyl-4-pentyl-2′-(prop-1-en-2-yl)-1′,2′,3′,4′-tetrahydro-[1,1′-biphenyl]-3-sulfonamide], the pIC50 on human CB2 receptor and at human CB1 receptor [1] was 6.00 to 7.00 in each case. Besides, the “Selectivity CB2” value on human CB2 receptor came out at 1.41 fold.
In the case of `C=C(C)[C@@H]1CCC(C)=C[C@H]1c1c(O)cc(CCC)c(S(=O)(=O)N(C)C)c1O` [Compound 67d, 2,6-dihydroxy-N,N,5′-trimethyl-2′-(prop-1-en-2-yl)-4-propyl-1′,2′,3′,4′-tetrahydro-[1,1′-biphenyl]-3-sulfonamide], on human CB2 receptor, the pIC50 is 5.30 to 6.00 and the “Selectivity CB2” value was 3.08 fold. Also, the pIC50 on human CB1 receptor [1] is 5.30 to 6.00.
Consider `C=C(C)[C@@H]1CCC(C)=C[C@H]1c1c(O)cc(CCCCC)c(S(=O)(=O)OCC(F)(F)F)c1O` [Compound 64d, 2,2,2-trifluoroethyl-2,6-dihydroxy-5′-methyl-4-pentyl-2′-(prop-1-en-2-yl)-1′,2′,3′,4′-tetrahydro-[1,1′-biphenyl]-3-sulfonate], for which, at human CB2 receptor, the pIC50 is 6.00 to 7.00. At human CB1 receptor [1], the pIC50 is 6.00 to 7.00 and the “Selectivity CB1” value is 2.00 fold.
As to `C=C(C)[C@@H]1CCC(C)=C[C@H]1c1c(O)cc(CCCCC)c(S(=O)(=O)N(CCO)CCBr)c1O` [Compound 63d, N-(2-bromoethyl)-2,6-dihydroxy-N-(2-hydroxyethyl)-5′-methyl-4-pentyl-2′-(prop-1-en-2-yl)-1′,2′,3′,4′-tetrahydro-[1,1′-biphenyl]-3-sulfonamide], at human CB2 receptor, the pIC50 was 5.30 to 6.00 and the “Selectivity CB2” value is 1.00 fold. In addition, at human CB1 receptor [1], the pIC50 is 5.30 to 6.00 and the “Selectivity CB1” value was 1.00 fold.
For `C=C(C)[C@@H]1CCC(C)=C[C@H]1c1c(O)cc(CCCCC)c(S(C)(=O)=O)c1O` [Compound 3d, 5′-methyl-3-(methylsulfonyl)-4-pentyl-2′-(prop-1-en-2-yl)-1′,2′,3′,4′-tetrahydro-[1,1′-biphenyl]-2,6-diol], on human CB2 receptor, the pIC50 is 5.30 to 6.00 and the “Selectivity CB2” value is 2.00 fold. For the same compound, on human CB1 receptor [1], the pIC50 is 5.30 to 6.00.
